# Measurements from US12404241B2 (Celgene Corporation, priority 2018, dated 2025).
# Molecular target: T1, AR (Homo sapiens, UniProt P10275)
# T1 construct: endogenous in cells; host or cells: VCaP cells
# T1 sequence (P10275 1-920): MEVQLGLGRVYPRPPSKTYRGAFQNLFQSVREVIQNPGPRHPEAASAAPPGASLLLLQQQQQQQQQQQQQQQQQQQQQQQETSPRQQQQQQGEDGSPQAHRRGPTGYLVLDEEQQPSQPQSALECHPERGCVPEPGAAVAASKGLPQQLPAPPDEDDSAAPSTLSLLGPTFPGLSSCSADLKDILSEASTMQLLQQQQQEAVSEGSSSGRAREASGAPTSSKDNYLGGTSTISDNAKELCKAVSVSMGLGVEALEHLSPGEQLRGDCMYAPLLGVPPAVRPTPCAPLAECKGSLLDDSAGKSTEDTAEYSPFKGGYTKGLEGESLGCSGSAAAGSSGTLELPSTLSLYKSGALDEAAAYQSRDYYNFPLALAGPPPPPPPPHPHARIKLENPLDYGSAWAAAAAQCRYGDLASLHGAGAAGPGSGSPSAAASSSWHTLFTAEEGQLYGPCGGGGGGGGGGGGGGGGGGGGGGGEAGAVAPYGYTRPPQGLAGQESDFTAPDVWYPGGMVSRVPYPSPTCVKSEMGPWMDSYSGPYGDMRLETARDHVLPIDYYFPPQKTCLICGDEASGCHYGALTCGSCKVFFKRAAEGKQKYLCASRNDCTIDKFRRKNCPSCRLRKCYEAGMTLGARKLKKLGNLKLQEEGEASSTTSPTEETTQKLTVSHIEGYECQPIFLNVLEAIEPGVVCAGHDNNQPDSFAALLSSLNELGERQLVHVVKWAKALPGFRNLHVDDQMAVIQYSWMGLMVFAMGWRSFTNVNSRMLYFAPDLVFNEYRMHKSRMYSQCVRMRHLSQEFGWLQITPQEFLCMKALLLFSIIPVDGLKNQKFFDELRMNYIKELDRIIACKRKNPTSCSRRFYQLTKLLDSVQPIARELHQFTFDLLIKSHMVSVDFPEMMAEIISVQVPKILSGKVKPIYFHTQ
# Test: VCAP AR Degradation Assay
# Type: cell-based
# Details: for Y (AR degradation efficiency, % of DMSO control): class symbols *; for DC50: class symbols A-C, read-out: DC50
# Summary of the method: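 AR protein in lysates quantified by sandwich ELISA after 24 h exposure of VCaP cells at 37 °C to 10 concentrations (1:3 steps, 5 μM top, final). Four-parameter logistic fit of percent-of-DMSO levels gave DC50 (50% degradation), EC50 and minimal AR level Y.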
Structure (SMILES),"Y (AR degradation efficiency, % of DMSO control)",DC50
"CCc1cc(N2C(=S)N(c3ccc(C#N)c(C(F)(F)F)c3)C(=O)C23CCC3)ccc1OCCN1CCN(CC(=O)Nc2cccc(NC3CCC(=O)NC3=O)c2)[C@H](C)C1 (stereo partly drawn) [Example 105, 2-((R)-4-(2-(4-(7-(4-cyano-3-(trifluoromethyl)phenyl)-8-oxo-6-thioxo-5,7-diazaspiro[3.4]octan-5-yl)-2-ethylphenoxy)ethyl)-2-methylpiperazin-1-yl)-N-(3-(2,6-dioxopiperidin-3-ylamino)phenyl)acetamide]",* (0<Y<=25%),< 100 nM
"Cc1c(N2C(=O)C(C)(C)N(c3ccc(OCCN4CCN(CC(=O)Nc5cccc(NC6CCC(=O)NC6=O)c5)CC4)c(F)c3)C2=S)ccc(C#N)c1C(F)(F)F (stereo not drawn) [Example 96, 2-(4-(2-(4-(3-(4-cyano-2-methyl-3-(trifluoromethyl)phenyl)-5,5-dimethyl-4-oxo-2-thioxoimidazolidin-1-yl)-2-fluorophenoxy)ethyl)piperazin-1-yl)-N-(3-(2,6-dioxopiperidin-3-ylamino)phenyl)acetamide]",*** (35%<Y<50%),< 100 nM
"CC(C)c1cc(N2C(=S)N(c3cnc(C#N)c(C(F)(F)F)c3)C(=O)C2(C)C)ccc1OCCN1C[C@@H](C)N(CC(=O)Nc2cccc(NC3CCC(=O)NC3=O)c2)C[C@H]1C (stereo partly drawn) [Example 192, 2-((2R,5R)-4-(2-(4-(3-(6-cyano-5-(trifluoromethyl)pyridin-3-yl)-5,5-dimethyl-4-oxo-2-thioxoimidazolidin-1-yl)-2-isopropylphenoxy)ethyl)-2,5-dimethylpiperazin-1-yl)-N-(3-(2,6-dioxopiperidin-3-ylamino)phenyl)acetamide]",** (25%<Y<=35%),100 to 500 nM
"CC1(C)C(=O)N(c2cnc(C#N)c(C(F)(F)F)c2)C(=S)N1c1ccc(OCCN2CCN(CC(=O)Nc3cc(Cl)cc(NC4CCC(=O)NC4=O)c3)CC2)c(CO)c1 (stereo not drawn) [Example 91, N-(3-chloro-5-(2,6-dioxopiperidin-3-ylamino)phenyl)-2-(4-(2-(4-(3-(6-cyano-5-(trifluoromethyl)pyridin-3-yl)-5,5-dimethyl-4-oxo-2-thioxoimidazolidin-1-yl)-2-(hydroxymethyl)phenoxy)ethyl)piperazin-1-yl)acetamide]",*** (35%<Y<50%),< 100 nM
"CCc1cc(N2C(=S)N(c3cnc(C#N)c(C(F)(F)F)c3)C(=O)C2(C)C)ccc1OCCN1CCN([C@H](C)C(=O)Nc2cc(F)cc(NC3CCC(=O)NC3=O)c2)CC1 (stereo partly drawn) [Example 117, (2R)-2-(4-(2-(4-(3-(6-cyano-5-(trifluoromethyl)pyridin-3-yl)-5,5-dimethyl-4-oxo-2-thioxoimidazolidin-1-yl)-2-ethylphenoxy)ethyl)piperazin-1-yl)-N-(3-(2,6-dioxopiperidin-3-ylamino)-5-fluorophenyl)propanamide]",* (0<Y<=25%),< 100 nM
"CC(F)(F)c1cc(N2C(=S)N(c3cnc(C#N)c(C(F)(F)F)c3)C(=O)C2(C)C)ccc1OCCN1CCN(CC(=O)Nc2cc(NC3CCC(=O)NC3=O)cc(F)c2F)CC1 (stereo not drawn) [Example 82, 2-(4-(2-(4-(3-(6-cyano-5-(trifluoromethyl)pyridin-3-yl)-5,5-dimethyl-4-oxo-2-thioxoimidazolidin-1-yl)-2-(1,1-difluoroethyl)phenoxy)ethyl)piperazin-1-yl)-N-(5-(2,6-dioxopiperidin-3-ylamino)-2,3-difluorophenyl)acetamide]",* (0<Y<=25%),< 100 nM
"CCc1cc(N2C(=S)N(c3ccc(C#N)c(C(F)(F)F)c3)C(=O)C2(C)C)ccc1OCCN1C[C@@H](C)N(CC(=O)Nc2cc(Cl)cc(NC3CCC(=O)NC3=O)c2)[C@H](C)C1 (stereo partly drawn) [Example 130, N-(3-chloro-5-(2,6-dioxopiperidin-3-ylamino)phenyl)-2-((2R,6R)-4-(2-(4-(3-(4-cyano-3-(trifluoromethyl)phenyl)-5,5-dimethyl-4-oxo-2-thioxoimidazolidin-1-yl)-2-ethylphenoxy)ethyl)-2,6-dimethylpiperazin-1-yl)acetamide]",* (0<Y<=25%),< 100 nM
"CCc1cc(N2C(=S)N(c3ccc(C#N)c(C(F)(F)F)c3)C(=O)C2(C)C)ccc1OC[C@H](C)N1C[C@@H](C)N(CC(=O)Nc2cccc(NC3CCC(=O)NC3=O)c2)[C@@H](C)C1 (single isomer, unassigned) [Example 236]",** (25%<Y<=35%),100 to 500 nM
"CCc1cc(N2C(=S)N(c3cnc(C#N)c(C(F)(F)F)c3)C(=O)C2(C)C)ccc1OCCN1CCN(CC(=O)Nc2cc(NC3CCC(=O)NC3=O)cc(F)c2F)C(C)(C)C1 (stereo not drawn) [Example 83, 2-(4-(2-(4-(3-(6-cyano-5-(trifluoromethyl)pyridin-3-yl)-5,5-dimethyl-4-oxo-2-thioxoimidazolidin-1-yl)-2-ethylphenoxy)ethyl)-2,2-dimethylpiperazin-1-yl)-N-(5-(2,6-dioxopiperidin-3-ylamino)-2,3-difluorophenyl)acetamide]",* (0<Y<=25%),< 100 nM
